Data reported in US10092546B2, “Imidazole derivatives” (Hoffman-La Roche Inc., priority 2015, dated 2018).

Molecular target: T1, human EAAT3 (Homo sapiens, UniProt P43005)
T1 construct: expressed in transfected cells
T1 sequence (P43005 1-524): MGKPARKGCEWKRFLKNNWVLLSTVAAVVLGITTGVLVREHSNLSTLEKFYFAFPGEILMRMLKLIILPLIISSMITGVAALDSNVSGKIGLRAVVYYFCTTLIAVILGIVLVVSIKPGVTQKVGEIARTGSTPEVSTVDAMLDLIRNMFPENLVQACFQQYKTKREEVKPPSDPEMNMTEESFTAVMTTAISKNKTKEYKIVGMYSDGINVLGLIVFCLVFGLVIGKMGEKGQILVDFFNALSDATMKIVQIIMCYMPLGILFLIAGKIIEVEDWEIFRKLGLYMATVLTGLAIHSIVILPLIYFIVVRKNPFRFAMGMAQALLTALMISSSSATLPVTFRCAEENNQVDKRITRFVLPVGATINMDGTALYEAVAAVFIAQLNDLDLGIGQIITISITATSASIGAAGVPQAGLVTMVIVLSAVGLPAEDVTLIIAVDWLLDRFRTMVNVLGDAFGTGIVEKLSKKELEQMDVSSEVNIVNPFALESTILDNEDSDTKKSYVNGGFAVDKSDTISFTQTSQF
Test: FLIPR Membrane Potential (FMP) assay, antagonist potency at human EAAT3
Type: cell-based
Details: HEK-293 cells stably expressing human EAAT3; L-glutamate as agonist at EC80; antagonist applied 15 min before; Kb by Cheng-Prusoff from IC50
Experimental: The FLIPR Membrane Potential (FMP) Assay
HEK-293 cells stably expressing human EAAT3 were seeded at 55 000 cells/well in growth medium (DMEM glutamate free (Invitrogen 11960-044), 1% Pen Strep (10 ml/l GIBCO BRL No 15140-023), 10% FCS non dialysed heat inactivated, 5 mg/l puromycin) in poly-D-lysine treated 96-well black microtiter plates with clear-bottom. After 24 h, the growth medium was removed and 100 μl/well of Krebs buffer (140 mM NaCl, 4.7 mM KCl, 2.5 mM CaCl2, 1.2 mM MgCl2, 11 mM HEPES, 10 mM D-glucose, pH=7.4) added. The cells were then loaded by adding 100 μl/well FMP assay dye (FLIPR Membrane Potential assay reagent, Molecular Devices). The 96-well plates were then incubated at 37° C. for 1 h. The depolarization of the cells will cause more dye to enter in the cells, where it will bind to intracellular proteins and lipids and cause an increase in the fluorescence signal. Antagonist potency at human EAAT3 was determined by using L-glutamate as agonist at a concentration which gives 80% of the maximum response. The antagonists were applied 15 min before the application of the agonist L-glutamate. The assays were performed at room temperature and measurements done by using a Fluorometric Imaging Plate Reader (FLIPR, Molecular Devices) and filter #2. Responses were measured as peak increase in fluorescence minus basal (i.e. fluorescence without addition of L-glutamate). Kb was determined using the Cheng-Prusoff equation Kb=IC50/[1+(A/EC50)], where IC50 is the concentration of the antagonist producing 50% inhibition, A is the concentration of the agonist against which the IC50 is being determined (at EC80) and EC50 is the concentration of the agonist producing 50% […].

| SMILES | Kb |
| --- | --- |
| CC(C)c1nccn1-c1cc(C(=O)NC2(C)CCS(=O)(=O)C2)cc(-c2ccc(F)cc2)n1 (racemic) [Example 38, (RS)-2-(4-Fluorophenyl)-N-(3-methyl-1,1-dioxothiolan-3-yl)-6-(2-propan-2-ylimidazol-1-yl)-pyridine-4-carboxamide] | 0.14 µM |
| CC(C)c1nccn1-c1cc(C(=O)NC(C)(C)C)cc(-c2ccc(Cl)cc2)n1 [Example 1, N-tert-Butyl-2-(4-chlorophenyl)-6-(2-propan-2-yl-imidazol-1-yl)-pyridine-4-carboxamide] | 0.14 µM |
| CC(C)c1nccn1-c1cc(C(=O)NC(C)(C)C)cc(-c2ccc(C(F)(F)F)cc2)n1 [Example 3, N-tert-Butyl-2-(2-propan-2-yl-imidazol-1-yl)-6-[4-(trifluoromethyl)-phenyl]-pyridine-4-carboxamide] | 0.46 µM |
| CC(C)(C)NC(=O)c1cc(-c2ccc(F)cc2)nc(-n2ccnc2C2CC2)c1 [Example 4, N-tert-Butyl-2-(2-cyclopropyl-imidazol-1-yl)-6-(4-fluorophenyl)-pyridine-4-carboxamide] | 0.16 µM |
| CC(C)(C)NC(=O)c1cc(-c2ccc(Cl)cc2)nc(-n2ccnc2C2CC2)c1 [Example 5, N-tert-Butyl-2-(4-chlorophenyl)-6-(2-cyclopropyl-imidazol-1-yl)-pyridine-4-carboxamide] | 0.12 µM |
| CC(C)(C)NC(=O)c1cc(-c2ccc(F)cc2)nc(-n2ccnc2)c1 [Example 6, N-tert-Butyl-2-(4-fluorophenyl)-6-imidazol-1-yl-pyridine-4-carboxamide] | 1 µM |
| Cc1nccn1-c1cc(C(=O)NC(C)(C)C)cc(-c2ccc(F)cc2)n1 [Example 7, N-tert-Butyl-2-(4-fluorophenyl)-6-(2-methyl-imidazol-1-yl)-pyridine-4-carboxamide] | 0.43 µM |
| CCc1nccn1-c1cc(C(=O)NC(C)(C)C)cc(-c2ccc(F)cc2)n1 [Example 8, N-tert-Butyl-2-(2-ethyl-imidazol-1-yl)-6-(4-fluorophenyl)-pyridine-4-carboxamide] | 0.21 µM |
| CC(C)(C)NC(=O)c1cc(-c2ccc(Cl)cc2)nc(-n2ccnc2)c1 [Example 9, N-tert-Butyl-2-(4-chlorophenyl)-6-imidazol-1-yl-pyridine-4-carboxamide] | 0.6 µM |
| Cc1nccn1-c1cc(C(=O)NC(C)(C)C)cc(-c2ccc(Cl)cc2)n1 [Example 10, N-tert-Butyl-2-(4-chlorophenyl)-6-(2-methyl-imidazol-1-yl)-pyridine-4-carboxamide] | 0.3 µM |
| CCc1nccn1-c1cc(C(=O)NC(C)(C)C)cc(-c2ccc(Cl)cc2)n1 [Example 11, N-tert-Butyl-2-(4-chlorophenyl)-6-(2-ethyl-imidazol-1-yl)-pyridine-4-carboxamide] | 0.25 µM |
| CC(C)(C)NC(=O)c1cc(-c2ccc(Cl)cc2)nc(-n2ccnc2C(C)(C)C)c1 [Example 12, N-tert-Butyl-2-(2-tert-butyl-imidazol-1-yl)-6-(4-chlorophenyl)-pyridine-4-carboxamide] | 0.063 µM |
| CC(C)(C)NC(=O)c1cc(-c2ccc(F)cc2)nc(-n2ccnc2C(C)(C)C)c1 [Example 13, N-tert-Butyl-2-(2-tert-butyl-imidazol-1-yl)-6-(4-fluorophenyl)-pyridine-4-carboxamide] | 0.058 µM |
| CC(C)c1nccn1-c1cc(C(=O)NC(C)(C)C2CC2)cc(-c2ccc(Cl)cc2)n1 [Example 15, 2-(4-Chlorophenyl)-N-(2-cyclopropylpropan-2-yl)-6-(2-propan-2-yl-imidazol-1-yl)-pyridine-4-carboxamide] | 0.15 µM |
| CC(C)(NC(=O)c1cc(-c2ccc(Cl)cc2)nc(-n2ccnc2C2CC2)c1)C1CC1 [Example 16, 2-(4-Chlorophenyl)-6-(2-cyclopropyl-imidazol-1-yl)-N-(2-cyclopropyl-propan-2-yl)-pyridine-4-carboxamide] | 0.3 µM |
| CC(C)(C)c1nccn1-c1cc(C(=O)NC(C)(C)C2CC2)cc(-c2ccc(Cl)cc2)n1 [Example 17, 2-(2-tert-Butylimidazol-1-yl)-6-(4-chlorophenyl)-N-(2-cyclopropyl-propan-2-yl)-pyridine-4-carboxamide] | 0.28 µM |
| CC(C)(C)NC(=O)c1cc(-c2ccc(F)cc2)nc(-n2ccnc2C(C)(C)O)c1 [Example 18, N-tert-Butyl-2-(4-fluorophenyl)-6-[2-(2-hydroxypropan-2-yl)-imidazol-1-yl]-pyridine-4-carboxamide] | 0.1 µM |
| CC(C)(C)NC(=O)c1cc(-c2ccc(C(F)(F)F)cc2)nc(-n2ccnc2C(C)(C)C)c1 [Example 19, N-tert-Butyl-2-(2-tert-butylimidazol-1-yl)-6-[4-(trifluoromethyl)-phenyl]-pyridine-4-carboxamide] | 0.18 µM |
| CC(C)(C)NC(=O)c1cc(-c2ccc(C(F)(F)F)cc2)nc(-n2ccnc2C2CC2)c1 [Example 20, N-tert-Butyl-2-(2-cyclopropyl-imidazol-1-yl)-6-[4-(trifluoromethyl)-phenyl]-pyridine-4-carboxamide] | 0.29 µM |
| Cc1nccn1-c1cc(C(=O)NC(C)(C)C)cc(-c2ccc(C(F)(F)F)cc2)n1 [Example 21, N-tert-Butyl-2-(2-methyl-imidazol-1-yl)-6-[4-(trifluoromethyl)-phenyl]-pyridine-4-carboxamide] | 0.65 µM |
| CC(C)(C)NC(=O)c1cc(-c2ccc(Cl)cc2)nc(-n2ccnc2CO)c1 [Example 22, N-tert-Butyl-2-(4-chlorophenyl)-6-[2-(hydroxymethyl)-imidazol-1-yl]-pyridine-4-carboxamide] | 0.5 µM |
| CC(C)c1nccn1-c1cc(C(=O)NC(C)(C)C(F)(F)F)cc(-c2ccc(Cl)cc2)n1 [Example 23, 2-(4-Chlorophenyl)-6-(2-propan-2-yl-imidazol-1-yl)-N-(1,1,1-trifluoro-2-methylpropan-2-yl)-pyridine-4-carboxamide] | 0.32 µM |
| CC(C)(NC(=O)c1cc(-c2ccc(Cl)cc2)nc(-n2ccnc2C2CC2)c1)C(F)(F)F [Example 24, 2-(4-Chlorophenyl)-6-(2-cyclopropyl-imidazol-1-yl)-N-(1,1,1-trifluoro-2-methylpropan-2-yl)-pyridine-4-carboxamide] | 0.51 µM |
| Cc1cc(-c2cc(C(=O)NC(C)(C)C)cc(-n3ccnc3C(C)(C)C)n2)ccc1F [Example 29, N-tert-Butyl-2-(2-tert-butyl-imidazol-1-yl)-6-(4-fluoro-3-methyl-phenyl)-pyridine-4-carboxamide] | 0.15 µM |
| CC(C)c1nccn1-c1cc(C(=O)NC(C)(C)CO)cc(-c2ccc(Cl)cc2)n1 [Example 30, 2-(4-Chlorophenyl)-N-(1-hydroxy-2-methylpropan-2-yl)-6-(2-propan-2-yl-imidazol-1-yl)-pyridine-4-carboxamide] | 0.19 µM |
| CC(C)(C)NC(=O)c1cc(-c2ccc(Cl)cc2)nc(-n2ccnc2C(C)(C)O)c1 [Example 33, N-tert-Butyl-2-(4-chlorophenyl)-6-[2-(2-hydroxypropan-2-yl)-imidazol-1-yl]-pyridine-4-carboxamide] | 0.17 µM |
| CC(C)(C)NC(=O)c1cc(-c2ccc(C(F)(F)F)cc2)nc(-n2ccnc2C(C)(C)O)c1 [Example 34, N-tert-Butyl-2-[2-(2-hydroxypropan-2-yl)-imidazol-1-yl]-6-[4-(trifluoromethyl)-phenyl]-pyridine-4-carboxamide] | 0.24 µM |
| CC(C)(O)c1nccn1-c1cc(C(=O)NC(C)(C)C2CC2)cc(-c2ccc(Cl)cc2)n1 [Example 35, 2-(4-Chlorophenyl)-N-(2-cyclopropylpropan-2-yl)-6-[2-(2-hydroxypropan-2-yl)-imidazol-1-yl]-pyridine-4-carboxamide] | 0.15 µM |
| CC(C)(O)c1nccn1-c1cc(C(=O)NC(C)(C)C(F)(F)F)cc(-c2ccc(Cl)cc2)n1 [Example 36, 2-(4-Chlorophenyl)-6-[2-(2-hydroxypropan-2-yl)-imidazol-1-yl]-N-(1,1,1-trifluoro-2-methylpropan-2-yl)-pyridine-4-carboxamide] | 0.078 µM |
| CC(C)(C#N)NC(=O)c1cc(-c2ccc(Cl)cc2)nc(-n2ccnc2C(C)(C)C)c1 [Example 37, 2-(2-tert-Butylimidazol-1-yl)-6-(4-chlorophenyl)-N-(2-cyanopropan-2-yl)-pyridine-4-carboxamide] | 0.096 µM |
